#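 Each compound was tested at five concentrations against cells in 96-well plates for 48 hours. Abbreviation: GI50, concentration required for 50% inhibition of growth. Definition used: TGI = concentration required for complete inhibition of growth.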
# Legend:
# Assay in all cases: inhibition of tumour cell growth, NCI panel, 48 h
# K-562 leukemia = tested on: K-562 leukemia
# CCRF-CEM leukemia = tested on: CCRF-CEM leukemia
# MALME-3M melanoma = tested on: MALME-3M melanoma
# HOP-92 NSCLC = tested on: HOP-92 NSCLC
# DU-145 prostate = tested on: DU-145 prostate
# CAKI-1 renal = tested on: CAKI-1 renal
# TK-10 renal = tested on: TK-10 renal
# NCI-H226 lung = tested on: NCI-H226 lung
# OVCAR-5 ovarian = tested on: OVCAR-5 ovarian
# BT-549 breast = tested on: BT-549 breast
SMILES,GI50 (K-562 leukemia),TGI (K-562 leukemia),GI50 (CCRF-CEM leukemia),TGI (CCRF-CEM leukemia),GI50 (MALME-3M melanoma),TGI (MALME-3M melanoma),GI50 (HOP-92 NSCLC),TGI (HOP-92 NSCLC),GI50 (DU-145 prostate),TGI (DU-145 prostate),GI50 (CAKI-1 renal),TGI (CAKI-1 renal),GI50 (TK-10 renal),TGI (TK-10 renal),GI50 (NCI-H226 lung),TGI (NCI-H226 lung),GI50 (OVCAR-5 ovarian),TGI (OVCAR-5 ovarian),GI50 (BT-549 breast),TGI (BT-549 breast)
Cc1cc(F)ccc1S(=O)(=O)Nc1cc(-c2c(O)ccc3ccccc23)c(O)c2ccccc12,3.56 µM,13 µM,3.26 µM,16.6 µM,3.27 µM,12.1 µM,0.292 µM,2.82 µM,4.09 µM,14.4 µM,2.5 µM,10.9 µM,5.87 µM,17.6 µM,2.85 µM,14.5 µM,4.55 µM,17.4 µM,3.04 µM,10.8 µM
CCCCOC(=O)C(NC(C(=O)OCCCC)c1cc(C(C)(C)C)c(O)c(C(C)(C)C)c1)c1cc(C(C)(C)C)c(O)c(C(C)(C)C)c1 (stereo unspecified),–,> 100 µM,–,> 100 µM,–,> 100 µM,–,> 100 µM,–,> 100 µM,–,> 100 µM,–,> 100 µM,–,> 100 µM,–,> 100 µM,–,> 100 µM
CC(=O)NCCC1CN(C(=O)/C=C/I)c2ccccc21 (stereo unspecified),–,> 100 µM,–,> 38.6 µM,–,26.3 µM,–,4.43 µM,–,29.2 µM,–,9.03 µM,–,3.63 µM,–,29.2 µM,–,29.3 µM,–,10.8 µM
CCCCCCCC/C=C\CCCCCCC/C=C1\C[C@](/C=C/C(=O)OC)(CO)OC1=O,–,15.3 µM,–,> 23 µM,–,2.86 µM,–,21.1 µM,–,24.6 µM,–,4.15 µM,–,8 µM,–,6.66 µM,–,19.5 µM,–,7.15 µM
CCNCCCn1c2c(c3ccc(Cl)cc3c1=O)C(=O)c1cc(OC)cnc1-2,–,–,0.0239 µM,1.75 µM,1.37 µM,3.12 µM,3.01 µM,27.2 µM,0.208 µM,1.56 µM,0.0472 µM,16.8 µM,–,–,1.4 µM,5.04 µM,1.48 µM,3.31 µM,0.813 µM,20.3 µM
CSCCC(N)C(=O)NCCNc1ccc(NCCNC(=O)C(N)CCSC)c2c1C(=O)c1ccccc1C2=O (stereo unspecified),–,> 100 µM,–,–,–,6.6 µM,–,3.4 µM,–,5.4 µM,–,7.25 µM,–,9.3 µM,–,7.46 µM,–,5.61 µM,–,2.93 µM
C[N+](C)(C)c1ccc(C(N)C(=O)O)cc1 (stereo unspecified),–,> 100 µM,–,> 100 µM,–,> 100 µM,–,> 100 µM,–,> 100 µM,–,> 100 µM,–,> 100 µM,–,> 100 µM,–,> 100 µM,–,> 100 µM
Cc1ccc([S@](=O)c2occc2C=O)cc1,–,4.25 µM,–,4.4 µM,–,8.45 µM,–,7.78 µM,–,33.1 µM,–,30.7 µM,–,18.6 µM,–,38 µM,–,34.7 µM,–,25.5 µM
OCCO/N=C1\C(c2c(O)[nH]c3ccccc23)=Nc2ccccc21,–,> 100 µM,–,> 100 µM,–,> 100 µM,–,> 100 µM,–,> 100 µM,–,> 100 µM,–,> 100 µM,–,> 100 µM,–,> 100 µM,–,> 100 µM
C[C@H](NC(=O)C(Cc1ccccc1)(Cc1ccc(O)cn1)NC(=O)c1ccccc1)c1ccccc1 (stereo partly specified),–,> 100 µM,–,> 100 µM,–,37.6 µM,–,38.8 µM,–,35.5 µM,–,90.5 µM,–,94.8 µM,–,36.5 µM,–,37.4 µM,–,36.9 µM
COC(=O)C1CCC(=S)N1C(=O)c1ccccc1 (stereo unspecified),–,> 100 µM,–,> 100 µM,–,> 100 µM,–,> 100 µM,–,> 100 µM,–,> 100 µM,–,> 100 µM,–,–,–,> 100 µM,–,> 100 µM
Cc1ccc(/C(O)=C/c2nc3ccccc3sc2=O)c(C)c1,–,> 100 µM,–,> 100 µM,–,> 100 µM,–,82.4 µM,–,> 100 µM,–,> 100 µM,–,> 100 µM,–,> 100 µM,–,> 100 µM,–,79.6 µM
COc1ccc(C2=Nc3cc(C)c(C)cc3NC(c3ccccc3)C2)cc1 (stereo unspecified),–,> 100 µM,–,> 100 µM,–,> 100 µM,–,> 100 µM,–,> 100 µM,–,> 100 µM,–,> 100 µM,–,> 100 µM,–,> 100 µM,–,> 100 µM
COC(C(=O)NN)c1ccccc1 (stereo unspecified),–,> 100 µM,–,–,–,> 100 µM,–,> 100 µM,–,> 100 µM,–,> 100 µM,–,> 100 µM,–,> 100 µM,–,> 100 µM,–,> 100 µM
CCN(CC)N1C(=O)[N+](CC)(CC)N=C1[O-],–,–,–,> 100 µM,–,> 100 µM,–,> 100 µM,–,> 100 µM,–,> 100 µM,–,> 100 µM,–,> 100 µM,–,> 100 µM,–,> 100 µM
O=c1[nH]nc(-c2ccccc2)n1/N=C\c1ccccc1,–,> 100 µM,–,> 100 µM,–,> 100 µM,–,> 100 µM,–,> 100 µM,–,> 100 µM,–,> 100 µM,–,> 100 µM,–,> 100 µM,–,> 100 µM
CC(C)=NN/C(=N\S(=O)(=O)c1ccc(Oc2cccc(Cl)c2C#N)cc1)Nc1ccc(Cl)cc1,–,> 100 µM,–,> 100 µM,–,> 100 µM,–,> 100 µM,–,> 100 µM,–,> 100 µM,–,> 100 µM,–,> 100 µM,–,> 100 µM,–,> 100 µM
OC1(c2ccccc2)CCN(Cc2c[nH]c3ccccc23)CC1,–,> 100 µM,–,> 100 µM,–,52.4 µM,–,> 100 µM,–,> 100 µM,–,> 100 µM,–,> 100 µM,–,> 100 µM,–,> 100 µM,–,> 100 µM
CCNC(=S)N=Nc1c(O)[nH]c2ccc([N+](=O)[O-])cc12,–,> 100 µM,–,> 100 µM,–,> 100 µM,–,> 100 µM,–,> 100 µM,–,> 100 µM,–,> 100 µM,–,> 100 µM,–,> 100 µM,–,> 100 µM
CO/N=C1\CC(NC(=O)CNC(=O)OC(C)(C)C)c2ccsc21 (stereo unspecified),–,–,–,> 100 µM,–,> 100 µM,–,> 100 µM,–,> 100 µM,–,> 100 µM,–,> 100 µM,–,> 100 µM,–,> 100 µM,–,> 100 µM

# — PubChem BioAssay (NCI)
